The results in this text go back to PubChem BioAssay AID179 (DTP/NCI, 2004).

Structures are written as SMILES. Calls of active or inactive are those of the source.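 The calls were made as follows: active = compounds giving half or more protection of infected cells from virus-caused growth loss, again on retest; inactive = the rest.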

This assay has as its system CEM cells HIV-1 protection, formazan growth assay. In words: NCI AIDS Antiviral Assay. The conditions noted are these: for IC50: measured here: growth of uninfected CEM cells. An outline of the steps: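 Screen of anti-HIV-1 activity in human CEM cells using a formazan-based growth measurement at five drug concentrations. Hits with 50% or greater protection were repeated, and confirmation required reproducible complete protection.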

For the compound `CC(C)(C)OC(=O)/N=C/c1c(O)c2ccccc2oc1=O`, the EC50 was over 200 µM and the IC50 came out at 30.2 µM.

For the compound `O=c1[nH]c(=O)n(COCc2ccccc2)c2ccsc12`, the outcome was inactive.

Consider `C/C(=C\Cc1ccc(F)cc1)CCCCCC/C(C)=C/Cc1ccc(F)cc1`, for which the EC50 is over 200 µM and the IC50 was 22.4 µM.

On to `c1ccc2c(c1)n1c(N3CCCC3)[n+]3ccccc3c1c1c3cccc[n+]3c(N3CCCC3)n21`, for which the EC50 is 57.5 µM and the IC50 was over 100 µM.

In the case of `COC1=C(OC)C(=O)C(C/C=C(\C)CC/C=C(\C)CC/C=C(\C)CC/C=C(\C)CC/C=C(\C)CC/C=C(\C)CC/C=C(\C)CC/C=C(\C)CC/C=C(\C)CCC=C(C)C)=C(C)C1=O`, the EC50 was over 110 µM and the IC50 was over 110 µM.

Take `COc1ccc(C23CCC(=O)N2CCS3)cc1` (stereo not given): the outcome was inactive.

On to `COc1cc2c3c(cccc3c1)C(=O)N(CCN1CCCC1)C2=O`, for which the EC50 was over 200 µM and the IC50 is 2.45 µM.

For the compound `O=c1[nH]c(-c2ccccc2)nc2cc([N+](=O)[O-])c(/C(Cl)=C/c3ccccc3)cc12`, the result was inactive.

For the compound `CCCc1[nH]c(SCCCCCCCCSc2nc(-c3ccc(F)cc3)c(CCC)[nH]2)nc1-c1ccc(F)cc1`, the EC50 was over 9.33 µM and the 50% inhibitory concentration (IC50) is over 9.33 µM.

Take `CC(C)N(C(=O)C12C3C4C1C1C2C3C41C(=O)C(C)(C)C)C(C)C` (stereo not given): the EC50 was over 158 µM and the IC50 amounted to 138 µM.

On to `O=c1c2cccnc2ncn1CCN1CCCCC1`, for which the outcome was inactive.

In the case of `COC(=O)C(C(=O)C(=O)Nc1c(C)cccc1C(C)(C)C)c1nc2ccc(Cl)cc2[nH]c1=O` (stereo not given), the EC50 is over 55 µM and the IC50 was over 55 µM.

As to `S=C(N/N=C/c1ccccn1)N1CC2CCC(CC2)C1`, the EC50 is over 200 µM and the half-inhibitory concentration (IC50) is 0.0631 µM.

Consider `CC1OC(OC2C(O)COC(OC3C(C)OC(OC4C(OC(=O)[C@]56CCC(C)(C)C[C@@H]5C5=CCC7[C@@]8(C)C[C@H](O)[C@H](OC9OC(CO)C(O)C(OC%10OC(CO)C(O)C(O)C%10O)C9O)[C@@](C)(CO)[C@@H]8CC[C@@]7(C)[C@]5(C)CC6)OCC(O)C4O)C(O)C3OC3OCC(O)C(O)C3O)C2O)C(O)C(O)C1O` (stereo not given in full), for which the EC50 is over 17 µM and the IC50 is over 17 µM.

Take `O=C1C(=O)c2ccccc2C(O)=C1C(C1=C(O)c2ccccc2C(=O)C1=O)c1ccc(C(C2=C(O)c3ccccc3C(=O)C2=O)C2=C(O)c3ccccc3C(=O)C2=O)cc1`: the EC50 is over 200 µM and the IC50 is 9.55 µM.

Consider `CCOC(=O)/C(O)=C(/C=NC(=S)c1ccncc1)C(=O)OCC`, for which the EC50 was over 200 µM and the IC50 was over 200 µM.

Consider `CC1=N/C(=C/c2ccc3c(c2)OCO3)C(=O)O1`, for which the EC50 is over 155 µM and the IC50 came to 105 µM.

On to `O=C(NN1C(=O)C(Cl)C1c1ccc([N+](=O)[O-])cc1)c1ccccc1O` (stereo not given), for which the EC50 is over 10.5 µM and the IC50 was over 10.5 µM.

On to `COc1cc(C2c3cc4c(cc3OC(NCCO)C2C)OCO4)cc(OC)c1O` (stereo not given), for which the EC50 is over 200 µM and the IC50 is 3.16 µM.

Consider `CCCCN(C(=O)c1ccccc1)C1CCC(=O)c2[nH]c3ccccc3c21` (stereo not given), for which the EC50 is over 200 µM and the half-inhibitory concentration (IC50) was determined as 17 µM.

With `COc1cc2c(cc1OC)CC1c3cc(OC)c(OC)cc3CCN1CC2` (stereo not given), the EC50 was over 200 µM and the IC50 stood at 30.2 µM.

As to `CCN(CC)P1CCP(c2ccccc2)CC1` (stereo not given), the EC50 was over 37.2 µM and the IC50 is over 37.2 µM.

Regarding `O=c1c2ccccc2ncn1O`, the EC50 is over 200 µM and the IC50 is over 200 µM.

Consider `Cn1c(=O)c(C#N)c2n(c1=S)CCCCCCC2`, for which the EC50 was over 200 µM and the IC50 is 112 µM.

In the case of `Cc1ccc(S(=O)(=O)N2/C(=C/c3ccccc3)C(=O)c3ccccc3-c3ccccc32)cc1`, the EC50 is over 11.5 µM and the IC50 was over 11.5 µM.

`N#CCC1C2CC3C(C2=O)C13` (stereo not given): the EC50 is over 200 µM and the IC50 is over 200 µM.

Regarding `CC1=C(C(=O)Nc2ccccc2C)C(c2ccco2)C(C(=O)Nc2ccccc2C)=C(C)N1C`, the EC50 is over 21.9 µM and the IC50 was over 21.9 µM.

On to `C1CCC2(CC1)C[N+]1(CCCC1)C1(CCC1)O2`, for which the EC50 was over 200 µM and the 50% inhibitory concentration (IC50) is over 200 µM.

As for `CC(C)C(=O)/C=C/c1c(Cl)cccc1Cl`, the outcome was inactive.

Turning to `CC1=C(C#N)C2(N)OC1(C)C1C(=O)C=CC(=O)C12` (stereo not given), the EC50 is over 200 µM and the half-maximal inhibitory concentration (IC50) is 23.4 µM.

Turning to `CCOC(=O)Nc1nc2ccccc2[nH]1`, the EC50 is over 200 µM and the IC50 came out at 11.2 µM.

Consider `O=C1NC(S(=O)(=O)O)=NNC12c1ccccc1-c1ccccc12`, for which the EC50 is over 200 µM and the half-maximal inhibitory concentration (IC50) came out at 107 µM.

For the compound `O=C(O)CCCC[n+]1ccccc1`, the EC50 is over 200 µM and the IC50 was over 200 µM.

For `Cn1c(O)c(C=Nc2ccccc2Cl)c(=O)n(C)c1=O`, the outcome was inactive.

`CCOC(=O)/C(C#N)=c1/s/c(=C(\O)N/N=C/c2ccc(OC)cc2)c(=N)n1-c1ccccc1`: the EC50 is over 4.27 µM and the IC50 was over 4.27 µM.

As for `CC(N)(CC(O)(C(F)(F)Cl)C(F)(F)Cl)C(=O)O` (stereo not given), the EC50 is over 200 µM and the concentration for half-maximal inhibition (IC50) was over 200 µM.

Take `Cc1cn(C2CC(N=[N+]=[N-])C(COC(=O)CCCCCCCCCCCCl)O2)c(=O)[nH]c1=O` (stereo not given): the EC50 is 0.288 µM and the half-maximal inhibitory concentration (IC50) stood at 20 µM.

For `CC(C)CN1CC(C)C(=O)NC1=O` (stereo not given), the outcome was inactive.

On to `O=S(=O)(O)CCNC(=S)C(=S)NCCS(=O)(=O)O`, for which the result was inactive.

Consider `N#C/C(=C(\N)c1ccccc1)c1ccccc1`, for which the EC50 was over 200 µM and the IC50 worked out at 97.7 µM.

For the compound `CCN(CC)c1ccc(N=C2C=CC(=C(C#N)C#N)c3ccccc32)c(C)c1`, the outcome was inactive.

Consider `CCOC(=O)C1=C(O)c2c(sc(C)c2-c2ccccc2)N(S(=O)(=O)c2ccc(C)cc2)CC1`, for which the EC50 was over 100 µM and the 50% inhibitory concentration (IC50) turned out to be 4.79 µM.

With `CC12CCC(c3no[n+]([O-])c31)C2(C)C` (stereo not given), the EC50 is over 200 µM and the IC50 stood at 110 µM.

`CCOC(=O)C12CCSC1C1(C#N)C(C#N)=CC2(N=P(c2ccccc2)(c2ccccc2)c2ccccc2)n2c(=O)n(-c3ccccc3)c(=O)n21` (stereo not given): the EC50 is over 26.3 µM and the IC50 is over 26.3 µM.

Regarding `CCOC(=O)/C(=C/c1cccc(OC)c1)N(CC)CC`, the EC50 was over 182 µM and the IC50 is over 182 µM.

As to `CCCCC(CC)C(=O)OC(C)CN(CC(C)OC(=O)C(CC)CCCC)C(=O)C(C)OC(=O)C(CC)CCCC` (stereo not given), the outcome was inactive.

As for `CC(=O)O[C@@H]1CCN(Cc2ccccc2)C[C@@H]1CN(C(C)=O)C12CC3CC(CC(C3)C1)C2`, the EC50 is over 8.51 µM and the 50% inhibitory concentration (IC50) was found to be 8.32 µM.

For `CCOC(OCC)(OCC)C(Br)CC` (stereo not given), the EC50 was over 933 µM and the IC50 was over 933 µM.

In the case of `NCCn1cnc2nc(NC(=O)c3ccccc3)[nH]c(=O)c21`, the EC50 is over 166 µM and the half-inhibitory concentration (IC50) is 91.2 µM.

With `CN(CCNC(=O)c1cc(-c2ccccc2)nc2ccccc12)CCNC(=O)c1cc(-c2ccccc2)nc2ccccc12`, the EC50 is over 20 µM and the IC50 worked out at 10.5 µM.

For `Clc1ccc(C2SCc3nc4ccccc4n32)cc1` (stereo not given), the result was inactive.

`COC(=O)C(C(=O)C(=O)Nc1c(Cl)cc([N+](=O)[O-])cc1Cl)c1csc(-n2nc(C3=CCCCC3)cc2-c2ccccc2)n1` (stereo not given): the EC50 was over 107 µM and the IC50 was over 107 µM.

Take `CC1=C2N3C[C@@H](n4c(=O)n(C)c(=O)n43)C23CCC1n1c(=O)n(C)c(=O)n13`: the EC50 is over 72.4 µM and the IC50 is over 72.4 µM.

On to `CCN(CC)c1ccc(C(=C2C=CC(=[N+](CC)CC)C=C2)c2ccc(S(=O)(=O)O)cc2S(=O)(=O)[O-])cc1`, for which the outcome was inactive.

As to `COc1ccc(/C(Cl)=C(\CNc2ccccn2)c2ccccc2)cc1OC`, the EC50 is over 200 µM and the half-maximal inhibitory concentration (IC50) was over 200 µM.

Consider `COc1ccc(CCN2C(=O)c3cccc4c(Br)ccc(c34)C2=O)cc1`, for which the EC50 is over 200 µM and the IC50 amounted to 105 µM.

For the compound `O=C1OC(=O)C2C1C(c1ccccc1)N1C3C(=O)OC(=O)C3C(c3ccccc3)N21` (stereo not given), the outcome was inactive.

Take `Cc1ccc(OCC2OC(n3cnc4c(N(C)C)nc(Br)nc43)CC2Oc2ccc(C)cc2)cc1` (stereo not given): the EC50 is over 200 µM and the IC50 came out at 31.6 µM.

Turning to `C[C@@H](c1ccccc1)N1C[C@@H](c2ccc3c(c2)OCO3)[C@@H]2C(=O)CCC[C@@H]21`, the EC50 was over 200 µM and the IC50 was found to be 112 µM.

For the compound `O=S(=O)(N=S(c1ccccc1)c1ccccc1)c1ccccc1`, the EC50 was over 145 µM and the IC50 was over 145 µM.

In the case of `C=C[Si](C)(C)COC(=O)/C(C#N)=C/C=C/c1ccccc1`, the EC50 was over 9.12 µM and the IC50 is over 9.12 µM.

On to `COc1ccc2nc(N/N=C/C(C)=N/Nc3cc(C)c4cc(OC)ccc4n3)cc(C)c2c1`, for which the EC50 is over 100 µM and the IC50 was 14.5 µM.

On to `NC(N)=NS(=O)(=O)c1ccc(Nc2c3ccccc3nc3c(C(=O)NNCCO)cccc23)cc1`, for which the EC50 was over 200 µM and the IC50 amounted to 5.25 µM.

As for `c1cc(-c2csc(-c3ccsc3)c2)cs1`, the EC50 was over 200 µM and the half-inhibitory concentration (IC50) was over 200 µM.

For `CC(C(=O)O)c1ccc(C(=O)c2cccs2)cc1` (stereo not given), the EC50 was over 200 µM and the IC50 is over 200 µM.

Take `COc1ccc(NS(=O)(=O)c2ccc3ncn(NS(=O)(=O)c4ccc(I)cc4)c(=O)c3c2)cc1`: the outcome was inactive.

Turning to `CC(NC1=NCCO1)c1ccsc1` (stereo not given), the EC50 was over 200 µM and the IC50 came out at 64.6 µM.

`Cc1nc(N)c2nc(Nc3ccccc3)sc2n1`: the EC50 was over 141 µM and the half-inhibitory concentration (IC50) was found to be 66.1 µM.

On to `COc1cc2c(cc1OC)C(C1c3cc(OC)c(OC)cc3-c3c(OC)c(OC)cc4c3C1N(C)CC4)C1c3c(cc(OC)c(OC)c3-2)CCN1C` (stereo not given), for which the result was inactive.

With `COc1cccc(N2C(=O)CC(Sc3ccccc3N)C2=O)c1` (stereo not given), the EC50 is over 200 µM and the IC50 was over 200 µM.

As a reminder, the EC50 is the concentration needed to bring the measured effect to its halfway point. Broadly, the IC50 is the concentration that gives 50% inhibition. A lower IC50 goes with higher potency.
